Results from PubChem BioAssay AID2060627 (Molecular Pharmacology Branch, DTP, NCI, 2025).

System: 156681-154-R-J1-PDC complex spheroid viability
Test: Anticancer human tumor 156681-154-R-J1-PDC patient-derived melanoma cell line growth inhibition [CLK]
Details: for IC50: curve of first compound; for viability, T/C: stronger effect = lower value
Method in brief: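 Patient-derived tumor cells grown as complex spheroids with HUVEC endothelial cells and mesenchymal stem cells, treated with drug combinations. Concentrations descend in half-log steps from near clinical Cmax, or from 10 microM if Cmax unknown.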
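Also: spheroids exposed to the agents for seven days.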
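For viability, T/C in this document: 100% = DMSO vehicle control viability.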

**Q.** With `CC(C)CC(NC(=O)C(Cc1ccccc1)NC(=O)c1cnccn1)B(O)O` (centres undefined) + CNC(=O)c1ccc(Nc2nc(OC3CCCC3)c3c(-c4ccc5nc(C)oc5c4)c[nH]c3n2)c(OC)c1 as the compound, how does the IC50 (second compound 0.0316 µM) read?
**A.** The IC50 was less than 0.949 nM.

**Q.** What about the IC50 (second compound 0.1 µM) of the same compound?
**A.** Its IC50 is less than 0.949 nM.

**Q.** What about the IC50 (second compound 0.316 µM) of the same compound?
**A.** The IC50 was less than 0.949 nM.

**Q.** And the IC50 (second compound 1 µM)?
**A.** The IC50 was less than 0.949 nM.

**Q.** What about the IC50 (second compound 3.16 µM) of the same compound?
**A.** The IC50 was less than 0.949 nM.

**Q.** What about the IC50 (second compound 10 µM) of the same compound?
**A.** Its IC50 is less than 0.949 nM.

**Q.** What about the viability, T/C (second compound 0.0316 µM, first compound 0.000949 µM) of the same compound?
**A.** Its viability, T/C is 9.11%.

**Q.** What about the viability, T/C (second compound 0.0316 µM, first compound 0.003 µM) of the same compound?
**A.** Its viability, T/C is 2.74%.

**Q.** What about the viability, T/C (second compound 0.0316 µM, first compound 0.00949 µM) of the same compound?
**A.** The viability, T/C was 0.21%.

**Q.** And the viability, T/C (second compound 0.0316 µM, first compound 0.03 µM)?
**A.** Its viability, T/C is 0.23%.

**Q.** And the viability, T/C (second compound 0.0316 µM, first compound 0.0949 µM)?
**A.** The viability, T/C was 0.18%.

**Q.** And the viability, T/C (second compound 0.0316 µM, first compound 0.3 µM)?
**A.** Its viability, T/C is 1.15%.

**Q.** And the viability, T/C (second compound 0.1 µM, first compound 0.000949 µM)?
**A.** Its viability, T/C is 15.1%.

**Q.** What about the viability, T/C (second compound 0.1 µM, first compound 0.003 µM) of the same compound?
**A.** Its viability, T/C is 0.3%.

**Q.** What about the viability, T/C (second compound 0.1 µM, first compound 0.00949 µM) of the same compound?
**A.** The viability, T/C was 0.24%.

**Q.** And the viability, T/C (second compound 0.1 µM, first compound 0.03 µM)?
**A.** Its viability, T/C is 0.21%.

**Q.** And the viability, T/C (second compound 0.1 µM, first compound 0.0949 µM)?
**A.** The viability, T/C was 0.18%.

**Q.** And the viability, T/C (second compound 0.1 µM, first compound 0.3 µM)?
**A.** Its viability, T/C is 1.03%.

**Q.** And the viability, T/C (second compound 0.316 µM, first compound 0.000949 µM)?
**A.** Its viability, T/C is 16.6%.

**Q.** What about the viability, T/C (second compound 0.316 µM, first compound 0.003 µM) of the same compound?
**A.** Its viability, T/C is 0.88%.

**Q.** And the viability, T/C (second compound 0.316 µM, first compound 0.00949 µM)?
**A.** Its viability, T/C is 0.24%.

**Q.** And the viability, T/C (second compound 0.316 µM, first compound 0.03 µM)?
**A.** Its viability, T/C is 0.19%.

**Q.** What about the viability, T/C (second compound 0.316 µM, first compound 0.0949 µM) of the same compound?
**A.** The viability, T/C was 0.15%.

**Q.** And the viability, T/C (second compound 0.316 µM, first compound 0.3 µM)?
**A.** Its viability, T/C is 0.15%.

**Q.** And the viability, T/C (second compound 1 µM, first compound 0.000949 µM)?
**A.** Its viability, T/C is 15.8%.

**Q.** What about the viability, T/C (second compound 1 µM, first compound 0.003 µM) of the same compound?
**A.** The viability, T/C was 0.29%.

**Q.** And the viability, T/C (second compound 1 µM, first compound 0.00949 µM)?
**A.** Its viability, T/C is 1.19%.

**Q.** What about the viability, T/C (second compound 1 µM, first compound 0.03 µM) of the same compound?
**A.** Its viability, T/C is 0.21%.

**Q.** What about the viability, T/C (second compound 1 µM, first compound 0.0949 µM) of the same compound?
**A.** Its viability, T/C is 0.19%.

**Q.** And the viability, T/C (second compound 1 µM, first compound 0.3 µM)?
**A.** Its viability, T/C is 1.63%.

**Q.** And the viability, T/C (second compound 3.16 µM, first compound 0.000949 µM)?
**A.** Its viability, T/C is 14.2%.

**Q.** What about the viability, T/C (second compound 3.16 µM, first compound 0.003 µM) of the same compound?
**A.** Its viability, T/C is 1%.

**Q.** And the viability, T/C (second compound 3.16 µM, first compound 0.00949 µM)?
**A.** Its viability, T/C is 1.37%.

**Q.** And the viability, T/C (second compound 3.16 µM, first compound 0.03 µM)?
**A.** The viability, T/C was 0.21%.

**Q.** What about the viability, T/C (second compound 3.16 µM, first compound 0.0949 µM) of the same compound?
**A.** Its viability, T/C is 0.2%.

**Q.** What about the viability, T/C (second compound 3.16 µM, first compound 0.3 µM) of the same compound?
**A.** Its viability, T/C is 0.39%.

**Q.** And the viability, T/C (second compound 10 µM, first compound 0.000949 µM)?
**A.** The viability, T/C was 14.7%.

**Q.** What about the viability, T/C (second compound 10 µM, first compound 0.003 µM) of the same compound?
**A.** Its viability, T/C is 1.3%.

**Q.** What about the viability, T/C (second compound 10 µM, first compound 0.00949 µM) of the same compound?
**A.** Its viability, T/C is 0.27%.

**Q.** What about the viability, T/C (second compound 10 µM, first compound 0.03 µM) of the same compound?
**A.** Its viability, T/C is 0.31%.

**Q.** What about the viability, T/C (second compound 10 µM, first compound 0.0949 µM) of the same compound?
**A.** Its viability, T/C is 0.26%.

**Q.** And the viability, T/C (second compound 10 µM, first compound 0.3 µM)?
**A.** Its viability, T/C is 0.15%.

**Q.** How did the IC50 (second compound 0.0316 µM) turn out when `O=C(c1cc(Cc2n[nH]c(=O)c3ccccc23)ccc1F)N1CCN(C(=O)C2CC2)CC1` + CNC(=O)c1ccc(Nc2nc(OC3CCCC3)c3c(-c4ccc5nc(C)oc5c4)c[nH]c3n2)c(OC)c1 was run?
**A.** The IC50 was greater than 10000 nM.

**Q.** And the IC50 (second compound 0.1 µM)?
**A.** The IC50 was greater than 10000 nM.

**Q.** What about the IC50 (second compound 0.316 µM) of the same compound?
**A.** The IC50 was greater than 10000 nM.

**Q.** What about the IC50 (second compound 1 µM) of the same compound?
**A.** Its IC50 is 481 nM.

**Q.** What about the IC50 (second compound 3.16 µM) of the same compound?
**A.** The IC50 was less than 31.6 nM.

**Q.** And the IC50 (second compound 10 µM)?
**A.** Its IC50 is less than 31.6 nM.

**Q.** And the viability, T/C (second compound 0.0316 µM, first compound 0.0316 µM)?
**A.** Its viability, T/C is 98.2%.

**Q.** What about the viability, T/C (second compound 0.0316 µM, first compound 0.1 µM) of the same compound?
**A.** Its viability, T/C is 108%.

**Q.** What about the viability, T/C (second compound 0.0316 µM, first compound 0.316 µM) of the same compound?
**A.** Its viability, T/C is 92.3%.

**Q.** And the viability, T/C (second compound 0.0316 µM, first compound 1 µM)?
**A.** The viability, T/C was 103%.

**Q.** What about the viability, T/C (second compound 0.0316 µM, first compound 3.16 µM) of the same compound?
**A.** Its viability, T/C is 92.5%.

**Q.** And the viability, T/C (second compound 0.0316 µM, first compound 10 µM)?
**A.** The viability, T/C was 79.3%.

**Q.** What about the viability, T/C (second compound 0.1 µM, first compound 0.0316 µM) of the same compound?
**A.** Its viability, T/C is 65.4%.

**Q.** What about the viability, T/C (second compound 0.1 µM, first compound 0.1 µM) of the same compound?
**A.** The viability, T/C was 72.5%.

**Q.** And the viability, T/C (second compound 0.1 µM, first compound 0.316 µM)?
**A.** Its viability, T/C is 65.4%.

**Q.** And the viability, T/C (second compound 0.1 µM, first compound 1 µM)?
**A.** Its viability, T/C is 80.9%.

**Q.** What about the viability, T/C (second compound 0.1 µM, first compound 3.16 µM) of the same compound?
**A.** The viability, T/C was 82.8%.

**Q.** What about the viability, T/C (second compound 0.1 µM, first compound 10 µM) of the same compound?
**A.** Its viability, T/C is 60.5%.

**Q.** And the viability, T/C (second compound 0.316 µM, first compound 0.0316 µM)?
**A.** The viability, T/C was 78.9%.

**Q.** What about the viability, T/C (second compound 0.316 µM, first compound 0.1 µM) of the same compound?
**A.** The viability, T/C was 69.3%.

**Q.** What about the viability, T/C (second compound 0.316 µM, first compound 0.316 µM) of the same compound?
**A.** The viability, T/C was 76.3%.

**Q.** And the viability, T/C (second compound 0.316 µM, first compound 1 µM)?
**A.** The viability, T/C was 71%.

**Q.** And the viability, T/C (second compound 0.316 µM, first compound 3.16 µM)?
**A.** The viability, T/C was 70.3%.

**Q.** What about the viability, T/C (second compound 0.316 µM, first compound 10 µM) of the same compound?
**A.** The viability, T/C was 54.3%.

**Q.** What about the viability, T/C (second compound 1 µM, first compound 0.0316 µM) of the same compound?
**A.** Its viability, T/C is 59.7%.

**Q.** And the viability, T/C (second compound 1 µM, first compound 0.1 µM)?
**A.** The viability, T/C was 48.5%.

**Q.** And the viability, T/C (second compound 1 µM, first compound 0.316 µM)?
**A.** The viability, T/C was 48.9%.

**Q.** And the viability, T/C (second compound 1 µM, first compound 1 µM)?
**A.** Its viability, T/C is 47.9%.

**Q.** And the viability, T/C (second compound 1 µM, first compound 3.16 µM)?
**A.** The viability, T/C was 42.8%.

**Q.** And the viability, T/C (second compound 1 µM, first compound 10 µM)?
**A.** Its viability, T/C is 25.8%.

**Q.** And the viability, T/C (second compound 3.16 µM, first compound 0.0316 µM)?
**A.** Its viability, T/C is 47.8%.

**Q.** And the viability, T/C (second compound 3.16 µM, first compound 0.1 µM)?
**A.** Its viability, T/C is 48.2%.

**Q.** What about the viability, T/C (second compound 3.16 µM, first compound 0.316 µM) of the same compound?
**A.** Its viability, T/C is 47.9%.

**Q.** What about the viability, T/C (second compound 3.16 µM, first compound 1 µM) of the same compound?
**A.** Its viability, T/C is 45.2%.

**Q.** And the viability, T/C (second compound 3.16 µM, first compound 3.16 µM)?
**A.** Its viability, T/C is 35.2%.

**Q.** What about the viability, T/C (second compound 3.16 µM, first compound 10 µM) of the same compound?
**A.** The viability, T/C was 20.2%.

**Q.** What about the viability, T/C (second compound 10 µM, first compound 0.0316 µM) of the same compound?
**A.** Its viability, T/C is 50.6%.

**Q.** And the viability, T/C (second compound 10 µM, first compound 0.1 µM)?
**A.** Its viability, T/C is 37%.

**Q.** And the viability, T/C (second compound 10 µM, first compound 0.316 µM)?
**A.** The viability, T/C was 38.6%.

**Q.** And the viability, T/C (second compound 10 µM, first compound 1 µM)?
**A.** The viability, T/C was 43.1%.

**Q.** And the viability, T/C (second compound 10 µM, first compound 3.16 µM)?
**A.** Its viability, T/C is 27.5%.

**Q.** What about the viability, T/C (second compound 10 µM, first compound 10 µM) of the same compound?
**A.** The viability, T/C was 15.6%.
